The values below come from US20230355597A1, “COMPOUNDS, COMPOSITIONS, AND METHODS FOR THE TREATMENT AND PREVENTION OF AVIAN PATHOGENIC E. COLI (APEC)” (OHIO STATE INNOVATION FOUNDATION, priority 2018, published 2023).

Assay [1] deals with AI-2 activity of APEC O15. Description: AI-2 bioluminescence indicator assay (V. harveyi BB170). As to conditions: APEC O15, 100 µM.
The test system of assay [2] is AI-2 activity of APEC O1. The description is as above. Conditions: APEC O1, 100 µM.
The test system of assay [3] is APEC O2 in HD-11 cells. Description: Intracellular survival assay (AI-2 inhibitors). As to conditions: O2, HD-11, 100 µM, 6 h.
Assay [4] has as its system AI-2 activity of APEC O18. Description: AI-2 bioluminescence indicator assay (V. harveyi BB170). As to conditions: APEC O18, 100 µM.
Assay [5] relates to AI-2 activity of APEC O35. The description is as above. As to conditions: APEC O35, 100 µM.
In assay [6] the test system is AI-2 activity of APEC O2. The description is as above. As to conditions: APEC O2, 100 µM.
Assay [7] deals with Rif^r APEC O78. Description: In vivo screening of quorum sensing inhibitors in APEC infected broiler chickens. As to conditions: for reduction in chicken mortality: DMSO control mortality normalized to 100%; for Mortality rate (%): oral gavage once a day, day 4 to day 8, DMSO control 66.7%; for Reduction in APEC lesions severity, Air-sacs (%) / Reduction in APEC lesions severity, Heart (%) / Reduction in APEC lesions severity, Liver (%) / Reduction in APEC lesions severity, Lung (%): vs DMSO treated control.

In assay [8] the test system is Rif^r APEC O78. Description: Wax moth (Galleria mellonella) larva infection model (AI-2 inhibitors).
Assay [9] deals with AI-2 activity of APEC O109. Description: AI-2 bioluminescence indicator assay (V. harveyi BB170). As to conditions: APEC O109, 100 µM.
For assay [10], the system named is AI-2 activity of APEC O115. Described as above. As to conditions: APEC O115, 100 µM.
For assay [11], the system named is AI-2 activity of APEC O78. The description is as above. Conditions: APEC O78, 100 µM.
Assay [12] has as its system AI-2 activity of APEC O8. The description is as above. As to conditions: APEC O8, 100 µM.
In assay [13] the test system is QS and virulence associated genes of APEC O78. Description: qRT-PCR of QS-regulated and virulence factors genes. As to conditions: 100 µM, 10 h. The class given is cell-based, avian pathogenic Escherichia coli (APEC). The protocol:
Quantitative real-time reverse transcription PCR (qRT-PCR). […] APEC O78 was grown in the presence of 100 µM of each compound in a 96-well plate at 37° C. for 10 h. APEC O78 culture treated with 1 µL of 100% DMSO was used as […]. Total RNA was extracted from duplicate wells for each compound (200 µL) using a miRNeasy Mini Kit (Qiagen). RNA quality and quantity was determined by nanodrop 2000 C spectrophotometer (Thermo scientific). Traces of DNA was removed using Genomic DNA removal mix (Qiagen). Approximately, 5 µg of purified RNA was used to synthesize cDNA using the Qiagen RT^2 First Strand Kit (Qiagen). The qRT-PCR was performed using SensiMix™ SYBER® Hi-Rox qPCR Master Mix (Bioline) according to manufacturer instructions in a realplex^2 mastercycler (Eppendorf) with 55° C. annealing temperature. Gene-specific primers were designed using PrimerQuest Tool and obtained from integrated DNA technologies (IDT). The data were normalized to the house-keeping gene, glyceraldehyde-3-phosphate dehydrogenase (GAPDH). The relative fold change was calculated using the ΔΔCt method. Three independent experiments were conducted.
(In qPCR the cycle at which signal appears reflects the starting amount.)

On to `Cc1ccc(CN2CCN(CCCc3ccccc3)CC2)cc1` [C5], for which the “Inhibition % of AI-2 activity” value in assay [1] came to 45%; in [2], 46%; in [4], 61%; in assay [5], 68%; in assay [6] it was 89%; in assay [9] it was 69%. In addition, the “Inhibition % of AI-2 activity” value in [10] stood at 63%; in assay [11], 83%; in assay [12], 18%. Further, the “clearance of intracellular APEC” value in [3] was found to be 100%. Besides, in [3] (vs DMSO), the “reduction of intracellular survival” value came to 3.3 logs. In addition, the “reduction in chicken mortality” value in assay [7] came to 100%. Also, the “average lesion score reduction” value in assay [7] (liver, heart, lung and airsac, vs DMSO) was 2.1-2.3. In addition, the “reduction of bacterial load in internal organs” value in assay [7] (liver, lung, heart, and kidney, vs DMSO control, 'up to') is 5.2-6.1 log CFU/g. Also, in [7], the “Mortality rate (%)” value stood at 0%. Moreover, the “Reduction in APEC lesions severity, Air-sacs (%)” value in assay [7] is reported as 93.3%. Also, the “Reduction in APEC lesions severity, Heart (%)” value in [7] turned out to be 87.5%. Moreover, the “Reduction in APEC lesions severity, Liver (%)” value in [7] was found to be 81.8%. In assay [7], the “Reduction in APEC lesions severity, Lung (%)” value is given as 88.9%. The “effect on body weight gain” value in [7] (vs non-treated and non-infected control group) was “increased BWG”. The larval death entry in [8] (48 h post treatment) was “no larval death”. For the same molecule, in assay [13], the “expression of fliP” value is on record as “down-regulated”. Further, in assay [13], the expression of fpr entry is reported as “down-regulated”.

Regarding `O=C(CCN1CCN(c2ccccc2F)CC1)Nc1ccc(Br)cc1` [C7, N-(4-bromophenyl)-3-[4-(2-fluomphenyl)-1-piperazinyl]propanamide], the “Inhibition % of AI-2 activity” value in [1] is reported as 36%; in assay [2] it was 47%; in assay [4], 48%; in [5], 62%; in assay [6] it was 83%; in assay [9], 67%. Also, the “Inhibition % of AI-2 activity” value in [10] is 45%; in [11], 94%; in [12], 2%. In addition, the “reduction in chicken mortality” value in assay [7] was “did not reduce”. Besides, the “Mortality rate (%)” value in [7] stood at 66.7%. Further, the “Reduction in APEC lesions severity, Air-sacs (%)” value in [7] amounted to 33.3%. For the same molecule, the “Reduction in APEC lesions severity, Heart (%)” value in assay [7] amounted to 33.3%. Further, the “Reduction in APEC lesions severity, Liver (%)” value in assay [7] is recorded as 33.3%. Besides, the “Reduction in APEC lesions severity, Lung (%)” value in assay [7] came to 83.3%. In addition, the larval death entry in assay [8] (72 h post treatment) is listed as “no larval death”.
